Test results published in the NIST ThermoML archive (doi:10.1021/je0400052).

Assays:
[1] = refractive index (Na D-line) (dimensionless); xn = mol fraction of the nth substance listed; conditions: 101.3 kPa, Liquid
[2] = xn = mol fraction of the nth substance listed; conditions: 101.3 kPa, Liquid
[3] = 101.33 kPa, Liquid
[4] = refractive index (Na D-line) (dimensionless); conditions: 101.33 kPa, Liquid

CCOC=O [ethyl methanoate] + Cc1ccccc1C
Conditions	mass density, [2] [kg/m3]	refractive index, [1]	viscosity, [2] [mPa·s]
303.15 K, x1 = 0.1467	872.7	1.4906	0.63
303.15 K, x1 = 0.2667	877.4	1.4873	0.586
303.15 K, x1 = 0.3779	880	1.4786	0.544
303.15 K, x1 = 0.4984	882.6	1.4721	0.502
303.15 K, x1 = 0.5936	886.9	1.4631	0.471
303.15 K, x1 = 0.694	891.2	1.4347	0.444
303.15 K, x1 = 0.7791	896.7	1.4072	0.42
303.15 K, x1 = 0.8563	901.2	1.3981	0.4
303.15 K, x1 = 0.9337	903.7	1.3729	0.378
313.15 K, x1 = 0.1467	864.6	1.4896	0.558
313.15 K, x1 = 0.2667	868.5	1.4819	0.521
313.15 K, x1 = 0.3779	871.9	1.4735	0.487
313.15 K, x1 = 0.4984	873.7	1.4671	0.452
313.15 K, x1 = 0.5936	876.9	1.4612	0.43
313.15 K, x1 = 0.694	881.6	1.4216	0.402
313.15 K, x1 = 0.7791	885.9	1.4061	0.382
313.15 K, x1 = 0.8563	889.6	1.3969	0.366
313.15 K, x1 = 0.9337	891.1	1.3701	0.359

CCc1ccccc1 [ethylbenzene]
Conditions	mass density, [3] [kg/m3]	refractive index, [4]	viscosity, [3] [mPa·s]
303.15 K	857.6	1.491	0.597
313.15 K	849.2	1.4891	0.538
